Reference: article PMC7188706 (Cancer Chemotherapy and Pharmacology, 2020)
Entries after “also recorded” stand apart in the source; their conditions may differ. Read-outs that look alike come from different tables or passages of the source. Values belong to the compound of their own block, whether it stands above or below them.

Columns and labels:
[1] = test system: NSCLC patients; design: method as in PMID 16878326; details: 2000 mg per week; cited from earlier work
[2] = design: method as in PMID 26858332; details: patients using omeprazole; cited from earlier work
[3] = test system: patients with known EGFR mutations; details: cited from earlier work
[4] = test system: HER2-positive breast cancer; design: method as in PMID 24711549; details: escalated to 7000 mg on days 1–5 of repeating 14-day cycles, heavily pre-treated patients; cited from earlier work
[5] = Plasma pharmacokinetics and drug monitoring of high-dose, pulsatile sorafenib (LC-MS/MS, non-compartmental); details: for Cmax / AUC(0-t): human, oral
[6] = cited from earlier work
[7] = test system: patients with advanced solid malignancies; assay: Phase I safety: treatment-related adverse events (CTCAE v4.0) and dose-limiting toxicity of once weekly high-dose, pulsatile sorafenib;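 also: Single-center phase I trial, adverse events graded by NCI CTCAE version 4.0, safety checks weekly over the first 8 weeks, then every 4 weeks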
[8] = test system: progressive renal cell carcinoma; details: 600 mg twice daily after failure of standard dosing; cited from earlier work
[9] = cited from earlier work; remark: listed apart in the source
[10] = test system: 789-O renal cell carcinoma xenografts; details: high-dose schedule; also increased reduction of tumor perfusion and microvessel density; cited from earlier work
[11] = test system: patients with advanced solid malignancies; details: in vivo;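 also: Single-center phase I trial, adverse events graded by NCI CTCAE version 4.0, safety checks weekly over the first 8 weeks, then every 4 weeks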
[12] = design: method as in PMID 15613696; details: 400 mg twice daily; cited from earlier work
[13] = Effect of cola versus water on sorafenib exposure (dose normalized Cmax and AUC(0–12 h)); type: in vivo, human; details: dissolved in cola vs water, patients using PPI
From the text: Descriptive statistics were used to describe patient characteristics, treatment administration, safety, efficacy and pharmacokinetic data. Progression-free survival (PFS) was defined as the time from first treatment until progression of disease or death as a result of any cause. Fisher’s exact tests were used to assess correlations between exposure level or dose and frequency of AEs. […] Data were considered significant at P < 0.05.

[14] = test system: patients; details: cited from earlier work
[15] = cited from earlier work; remark: listed apart in the source
[16] = cited from earlier work; remark: listed apart in the source
[17] = test system: advanced solid malignancies; assay: Tumor response by CT or MRI using RECIST version 1.1; type: in vivo, human
Method: Tumor response was assessed by computed tomography or magnetic resonance imaging at baseline and every 8 weeks thereafter using RECIST version 1.1 [24].
Descriptive statistics were used to describe patient characteristics, treatment administration, safety, efficacy and pharmacokinetic data. […] Fisher’s exact tests were used to assess correlations between exposure level or dose and frequency of AEs. […] Data were considered significant at P < 0.05.

[18] = test system: advanced solid malignancies; details: cited from earlier work

Compound: C#Cc1cccc(Nc2ncnc3cc(OCCOC)c(OCCOC)cc23)c1 [erlotinib]
- mean overall survival (OS) [1]: 9.5 months
- tolerability [1]: well tolerated
- effect of cola intake on bioavailability [2]: did improve by cola intake
- tolerability ([3]; erlotinib 450 mg every 3 days or gefitinib 1000 mg every 4 days): well tolerated
- median PFS ([3]; erlotinib 450 mg every 3 days): 6 months
- response rate ([3]; erlotinib 450 mg every 3 days): 15%

Compound: CS(=O)(=O)CCNCc1ccc(-c2ccc3ncnc(Nc4ccc(OCc5cccc(F)c5)c(Cl)c4)c3c2)o1 [lapatinib]
- objective response rate [4]: 15%

- metabolite as share of the parent drug ([5]; plasma): approximately 4%
Compound: CNC(=O)c1cc(Oc2ccc(NC(=O)Nc3ccc(Cl)c(C(F)(F)F)c3)cc2)cc[n+]1[O-] [sorafenib N-oxide]

Compound: CNC(=O)c1cc(Oc2ccc(NC(=O)Nc3ccc(Cl)c(C(F)(F)F)c3)cc2)ccn1 [sorafenib]
- improvement of absorption by multiple divided doses per day [6]: 50%
- effects of PPI on sorafenib absorption ([6]; contradicting results): no effects to one-third reduction
- dose above which absorption is saturable ([6]; daily continuous schedule): > 800 mg/day
- improvement of absorption by a moderate fat meal ([6]; in comparison to a high fat meal of ≥ 50% fat): 30%
- tolerated dose in a pulsatile schedule as multiple of conventional dose [7]: ~ 3.5 times
- patients with tumor reduction [8]: 42%
- association of higher AUCmax (> 100 mg/L/h) with outcome [9]: longer progression-free survival
- tumor growth in comparison to continuous conventional dosing [10]: slower tumor growth
- ALP increased, Grade All, no. of patients (%) ([11]; human): 3 (20%)
- ALP increased, Grade ≥ 3, no. of patients (%) ([11]; human): 2 (13%)
- Anorexia, Grade All, no. of patients (%) ([11]; human): 3 (20%)
- Anorexia, Grade ≥ 3, no. of patients (%) ([11]; human): 0
- Bilirubin increased, Grade All, no. of patients (%) ([11]; human): 2 (13%)
- Bilirubin increased, Grade ≥ 3, no. of patients (%) ([11]; human): 0
- Bloating, Grade All, no. of patients (%) ([11]; human): 2 (13%)
- Bloating, Grade ≥ 3, no. of patients (%) ([11]; human): 0
- Diarrhea, Grade All, no. of patients (%) ([11]; human): 4 (27%)
- Diarrhea, Grade ≥ 3, no. of patients (%) ([11]; human): 0
- Fatigue, Grade All, no. of patients (%) ([11]; human): 10 (67%)
- Fatigue, Grade ≥ 3, no. of patients (%) ([11]; human): 0
- GGT increased, Grade All, no. of patients (%) ([11]; human): 1 (7%)
- GGT increased, Grade ≥ 3, no. of patients (%) ([11]; human): 1 (7%)
- Multiorgan failure, Grade All, no. of patients (%) ([11]; human): 1 (7%)
- Multiorgan failure, Grade ≥ 3, no. of patients (%) ([11]; human): 1 (7%)
- Nausea, Grade All, no. of patients (%) ([11]; human): 10 (67%)
- Nausea, Grade ≥ 3, no. of patients (%) ([11]; human): 0
- Perforation, Grade All, no. of patients (%) ([11]; human): 2 (13%)
- Perforation, Grade ≥ 3, no. of patients (%) ([11]; human): 2 (13%)
- Stomatitis, Grade All, no. of patients (%) ([11]; human): 2 (13%)
- Stomatitis, Grade ≥ 3, no. of patients (%) ([11]; human): 0
- Vomiting, Grade All, no. of patients (%) ([11]; human): 8 (53%)
- Vomiting, Grade ≥ 3, no. of patients (%) ([11]; human): 0
- diarrhea, frequency ([11]; human): 27%
- doses from which grade ≥ 3 AEs developed ([11]; human): ≥ 2800 mg/week
- fatigue, frequency ([11]; human): 67%
- incidence of perforation ([11]; human): 13%
- nausea, frequency ([11]; human): 67%
- patients requiring dose interruptions ([11]; human): 33%
- patients with dose interruptions due to DLTs leading to permanent study discontinuation ([11]; human): 20%
- vomiting, frequency ([11]; human): 53%
- dose-limiting toxicity, one patient ([11]; human, 3 cycles): grade 5 biliary tract perforation
- frequency and rate of grade ≥ 3 AEs versus dose [11]: increased with a higher dose of sorafenib
- frequency and rate of grade ≥ 3 AEs versus exposure [11]: did not increase with higher exposure
- patients with dose-limiting toxicity [11]: three patients
- mean Cmax, steady state [12]: 5400 to 9400 ng/mL
- mean sorafenib exposure (AUC), day 1 [12]: 21.8 to 107 mg/L/h
- mean sorafenib exposure (AUC), steady state [12]: 47.8 to 71.7 mg/L/h
- effect of cola on sorafenib AUC(0–12 h) ([13]; P = 0.24): did not improve sorafenib exposure; also recorded: did not lead to an increase; also recorded: did not affect
- effect of cola on sorafenib Cmax ([13]; P = 0.33): did not lead to an increase; also recorded: did not affect
- Observed AUC(0–12 h) week 3, mean (± SD) ([5]; Cohort 1, target AUC(0–12 h) 25–50 mg/L/h, PK-guided dose week 3 533 (± 306) mg, plasma): 31 (± 13) mg/L/h
- mean difference between observed and target AUC(0–12 h), week 3 ([5]; after drug monitoring / personalized dose titration, SD ± 32%, P = 0.06 vs week 1): 2%
- mean difference between observed and target AUC(0–12 h), week 1 ([5]; fixed starting dose, SD ± 56%): 45%
- Cmax ([5]; plasma, 533 mg, Cmax week 3, mean (± SD), Cohort 1, PK-guided dose week 3 533 (± 306) mg): 4380 ng/mL
- AUC(0-t) ([5]; plasma, 1000 mg, AUC(0–12 h), range, first exposure cohort, target AUC(0–12 h) 25–50 mg/L/h): 61 to 103 µg·h/mL
- AUC(0-t) ([5]; plasma, 1000 mg, Observed AUC(0–12 h) week 1, mean (± SD), Cohort 1, 3 patients, target AUC(0–12 h) 25–50 mg/L/h, fixed dose week 1 1000 mg): 78 µg·h/mL
- Cmax ([5]; plasma, 1867 mg, Cmax week 3, mean (± SD), Cohort 2, PK-guided dose week 3 1867 (± 993) mg): 11100 ng/mL
- Cmax ([5]; plasma, 2000 mg, Cmax week 1, mean (± SD), Cohort 2, 8 patients, fixed dose week 1 2000 mg): 13700 ng/mL
- AUC(0-t) ([5]; plasma, 2000 mg, Observed AUC(0–12 h) week 1, mean (± SD), Cohort 2, 8 patients, target AUC(0–12 h) 75–100 mg/L/h, fixed dose week 1 2000 mg): 125 µg·h/mL
- Cmax ([5]; plasma, 2333 mg, Cmax week 3, mean (± SD), Cohort 3, PK-guided dose week 3 2333 (± 219) mg): 13300 ng/mL
- Cmax ([5]; plasma, 2400 mg, Cmax week 1, mean (± SD), Cohort 3, 3 patients, fixed dose week 1 2400 mg): 20800 ng/mL
- Cmax ([5]; plasma, 2400 mg, Cmax, highest, SD ± 11 mg/L): ≤ 21000 ng/mL
- AUC(0-t) ([5]; plasma, 2400 mg, highest exposure levels, AUC(0–12 h), SD ± 113 mg/L/h): ≤ 204 µg·h/mL
- AUC(0-t) ([5]; plasma, 2800 mg, Observed AUC(0–12 h) week 1, mean (± SD), Cohort 4, 3 patients, target AUC(0–12 h) 125–150 mg/L/h, fixed dose week 1 2800 mg): 120 µg·h/mL
- AUC(0-t) ([5]; plasma, 3600 mg, observed AUC(0–12 h), individual patient, patient with grade 5 biliary tract perforation, sorafenib dose 3600 mg): 182 µg·h/mL
- sorafenib dose up to which mean exposure increased ([5]; no additional increases thereafter, divided doses of 200–400 mg every 2 h): up to 2400 mg per week
- accumulation a week after each ingestion ([5]; once weekly): No accumulation
- incidence of perforation of the gastrointestinal tract ([14]; standard continuous schedule): < 1%
- most important DLTs ([14]; standard dose sorafenib, several phase I studies): skin toxicity, diarrhea and fatigue
- enterohepatic circulation [15]: has been observed
- solubility ([16]; pH 1.0): 0.034 mg/100 mL
- solubility ([16]; pH 4.5): 0.013 mg/100 mL
- duration of stable disease ([17]; patient with cholangiocarcinoma, target exposure 75–100 mg/L/h, 2400 mg/week): 3 months
- duration of stable disease ([17]; patient with hepatocellular carcinoma, target exposure 100–125 mg/L/h, 4800 mg/week): 5.5 months
- complete or partial responses ([17]; thirteen patients evaluable): No complete or partial responses were observed
- progressive disease, patients ([17]; thirteen patients evaluable, eleven patients): 85%
- best response stable disease, patients ([17]; thirteen patients evaluable, two patients): 15%

Compound: CCN(CC)CCNC(=O)c1c(C)[nH]c(/C=C2\C(=O)Nc3ccc(F)cc32)c1C [sunitinib]
- increase of Cmax ([18]; 14 times the conventional dose): 18 fold
- patients with PFS of ≥ 5 months [18]: 30%
- patients with clinical benefit ([18]; more than 70 heavily pre-treated patients): 63%
